The source of these data is PMC9354042, “Discovery of BRAF/HDAC Dual Inhibitors Suppressing Proliferation of Human Colorectal Cancer Cells” (Frontiers in Chemistry, 2022).

For one assay, the target named is T1, HDAC6 (Homo sapiens, UniProt Q9UBN7).
T1 construct: purchased BPS Bioscience
T1 sequence (Q9UBN7 1-1215): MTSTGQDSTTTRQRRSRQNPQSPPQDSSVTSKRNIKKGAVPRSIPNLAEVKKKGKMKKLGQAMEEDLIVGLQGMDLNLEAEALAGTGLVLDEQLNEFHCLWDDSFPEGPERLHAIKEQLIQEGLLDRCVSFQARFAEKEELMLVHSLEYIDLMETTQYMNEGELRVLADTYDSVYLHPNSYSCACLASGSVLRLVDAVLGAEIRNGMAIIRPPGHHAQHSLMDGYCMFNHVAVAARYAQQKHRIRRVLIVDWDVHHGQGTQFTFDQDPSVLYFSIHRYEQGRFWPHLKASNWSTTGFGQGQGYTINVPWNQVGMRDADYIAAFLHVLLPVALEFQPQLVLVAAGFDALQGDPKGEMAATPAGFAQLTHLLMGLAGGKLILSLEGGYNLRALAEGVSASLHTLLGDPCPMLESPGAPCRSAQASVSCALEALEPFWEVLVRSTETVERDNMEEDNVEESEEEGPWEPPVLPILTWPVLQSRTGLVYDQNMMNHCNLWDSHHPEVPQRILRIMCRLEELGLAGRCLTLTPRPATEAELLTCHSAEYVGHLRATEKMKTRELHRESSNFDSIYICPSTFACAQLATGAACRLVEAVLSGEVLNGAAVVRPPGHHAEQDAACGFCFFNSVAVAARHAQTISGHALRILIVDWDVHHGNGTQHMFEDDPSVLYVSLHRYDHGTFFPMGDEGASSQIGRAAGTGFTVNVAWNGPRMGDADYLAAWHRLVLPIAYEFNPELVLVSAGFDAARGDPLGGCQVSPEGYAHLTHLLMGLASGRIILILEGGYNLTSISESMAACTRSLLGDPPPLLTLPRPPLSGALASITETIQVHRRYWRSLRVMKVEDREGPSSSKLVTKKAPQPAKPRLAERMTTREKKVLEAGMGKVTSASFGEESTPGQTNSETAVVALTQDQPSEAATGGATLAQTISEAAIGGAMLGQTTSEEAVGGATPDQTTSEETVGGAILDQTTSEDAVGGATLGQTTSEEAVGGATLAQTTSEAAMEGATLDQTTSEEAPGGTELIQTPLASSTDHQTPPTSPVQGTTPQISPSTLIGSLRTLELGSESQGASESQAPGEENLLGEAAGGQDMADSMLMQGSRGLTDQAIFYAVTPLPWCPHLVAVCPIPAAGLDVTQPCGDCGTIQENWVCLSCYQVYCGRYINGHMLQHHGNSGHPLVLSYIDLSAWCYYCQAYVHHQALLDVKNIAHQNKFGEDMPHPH
The assay is described as follows: HDAC6 fluorescent-based enzymatic activity assay. In kind it is biochemical. Conditions: Table 1; read-out: Enzymatic IC50 HDAC6. As to the method:
(§1) The purified recombinant Human HDACs and their corresponding substrates were purchased from BPS Bioscience (BPS Bioscience Inc., United States). The assays were carried out in a 384-well format using the BPS fluorescent–based HDAC activity assay according to the manufacturer’s protocol. In brief, […] of the HDAC reaction mixture was composed of HDAC assay buffer, […] BSA, serial diluted test compounds, appropriate concentration of HDACs, and […] fluorogenic substrate, the mixture was incubated at 37°C for 60 min, and then stopped by the addition of developer containing trypsin and TSA. After 20 min of incubation, the fluorescence was detected at the excitation wavelength of 360 nm and the emission wavelength of 460 nm using the EnVision Multilabel Reader (PerkinElmer Inc., United States). The analytical software, GraphPad Prism 5.0 (GraphPad Software, Inc., United States) was used to generate IC50 value via non-linear regression analysis.

The test system of another assay is HT-29 cells. Nature of the assay: Antiproliferation CCK-8 assay, HT-29. In kind it is cell-based. Particulars: Homo sapiens; CCK-8, 72 h, HT-29 (BRAF^V600E); means of three independent experiments; read-out: Cellular IC50 HT-29. As to the method:
(§2) HCT116 and HT-29 cells were obtained from the Shanghai Cell Bank (Type Culture Collection (TCC), Chinese Academy of Sciences) and cultured in DMEM (10–013-CVR, corning) supplemented with 10% fetal bovine serum (04-001-1A, BI), 1% penicillin/streptomycin (03-031-1B, BI).
(§3) The cells in the logarithmic phase were placed in 96-well plates (∼3000 cells/well) in a complete medium. After incubation overnight, the cells were exposed to the corresponding compounds or vehicle control at the indicated concentration for a further 72 h. Cell proliferation was evaluated using Cell Counting Kit 8 (CCK8, CK04, Dojindo Laboratories, Kumamoto, Japan). OD450 and OD650 were determined using a microplate reader. Absorbance rate (A) for each well was calculated as OD450 −OD650. […] Each IC50 value is expressed as mean ± SD. As is the absorbance rate of the test compound well, Ac is the absorbance rate of the well without either the cell or test compound, and Ab is the absorbance rate of the well with the cell and vehicle control.

In the next assay the target is T2, HDAC1 (Homo sapiens, UniProt Q13547).
T2 construct: purchased BPS Bioscience
T2 sequence (Q13547 whole entry): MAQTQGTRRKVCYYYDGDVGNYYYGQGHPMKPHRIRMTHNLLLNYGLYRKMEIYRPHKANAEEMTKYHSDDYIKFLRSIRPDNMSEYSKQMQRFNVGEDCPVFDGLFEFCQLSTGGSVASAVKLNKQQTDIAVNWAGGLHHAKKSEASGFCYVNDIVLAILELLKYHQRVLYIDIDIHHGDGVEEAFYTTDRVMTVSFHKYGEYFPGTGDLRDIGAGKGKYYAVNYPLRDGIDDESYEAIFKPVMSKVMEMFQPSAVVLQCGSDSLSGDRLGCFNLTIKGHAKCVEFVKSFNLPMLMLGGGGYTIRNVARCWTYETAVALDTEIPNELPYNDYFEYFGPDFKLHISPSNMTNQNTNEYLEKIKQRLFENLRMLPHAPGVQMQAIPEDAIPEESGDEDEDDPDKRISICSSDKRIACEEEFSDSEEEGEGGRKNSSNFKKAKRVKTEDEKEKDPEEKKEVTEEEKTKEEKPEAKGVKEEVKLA
The assay is described as follows: HDAC1 fluorescent-based enzymatic activity assay. In kind it is biochemical. Conditions: Table 1; read-out: Enzymatic IC50 HDAC1. As to the method:
as §1

For a further assay, the system named is HCT116 cells. Nature of the assay: Antiproliferation CCK-8 assay, HCT116. It is filed as cell-based. Conditions: Homo sapiens, HCT-116; CCK-8, 72 h, HCT116 (wild-type BRAF); means of three independent experiments; read-out: Cellular IC50 HCT116. As to the method: as §2, §3
(Tetrazolium assays rely on reduction of a dye to a coloured formazan, in cell work by metabolically active cells.)

The next assay addresses T3, BRAF^V600E (Homo sapiens, UniProt P15056, V600E).
T3 construct: purchased Invitrogen
The assay is described as follows: BRAF V600E enzymatic activity, FRET-based Z'-Lyte kinase assay. In kind it is biochemical. As to the method: The experiments were performed according to the instructions of the manufacturer. […] For each assay, 10 μl kinase reactions were added to 384-well plate, mixed thoroughly, and incubated for 1 hour at room temperature. Then, a 5 μl development solution was added to each well and the plate was incubated for another 1 h at room temperature. Then, a 5 μl stop reagent was loaded to stop the reaction. For the control setting, a 5 μl phospho-peptide solution instead of kinase/peptide mixture was used as 100% phosphorylation control. […] The plate was measured on an EnVision Multilabel Reader (Perkin-Elmer). Curve fitting and data presentations were performed using GraphPad Prism, version 5.0. Every experiment was repeated at least two times.

Molecules are shown by their SMILES. A value given as a limit tells only on which side of the number the result lay.

T3 sequence (P15056 whole entry V600E): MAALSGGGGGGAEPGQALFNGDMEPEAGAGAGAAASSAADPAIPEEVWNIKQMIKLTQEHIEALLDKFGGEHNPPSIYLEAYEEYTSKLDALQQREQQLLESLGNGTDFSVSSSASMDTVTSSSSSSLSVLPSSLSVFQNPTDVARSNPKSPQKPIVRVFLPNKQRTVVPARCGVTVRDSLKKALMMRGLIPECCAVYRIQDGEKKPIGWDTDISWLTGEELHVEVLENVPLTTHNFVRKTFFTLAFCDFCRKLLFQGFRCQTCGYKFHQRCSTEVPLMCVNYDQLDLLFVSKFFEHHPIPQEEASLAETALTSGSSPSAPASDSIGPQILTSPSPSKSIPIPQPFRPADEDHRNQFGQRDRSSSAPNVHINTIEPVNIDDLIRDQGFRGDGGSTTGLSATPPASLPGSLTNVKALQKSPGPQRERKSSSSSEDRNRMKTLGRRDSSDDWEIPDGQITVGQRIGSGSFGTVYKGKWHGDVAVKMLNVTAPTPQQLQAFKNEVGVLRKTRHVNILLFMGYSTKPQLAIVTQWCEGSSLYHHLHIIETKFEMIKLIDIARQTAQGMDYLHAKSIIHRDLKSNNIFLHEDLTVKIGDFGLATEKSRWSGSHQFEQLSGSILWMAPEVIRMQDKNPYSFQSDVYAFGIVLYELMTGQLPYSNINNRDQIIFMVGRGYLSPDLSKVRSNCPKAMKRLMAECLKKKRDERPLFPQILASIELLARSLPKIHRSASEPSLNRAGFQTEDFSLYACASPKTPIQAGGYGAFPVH

As to `CC(C)(C)c1nc(-c2cccc(NS(=O)(=O)c3c(F)cccc3F)c2F)c(-c2ccnc(NCCCCCC(=O)NO)n2)s1` [14a], the IC50 stood at 1210 nM at HDAC6; 1000 nM with HT-29 cells; 679 nM at HDAC1; 3000 nM in the assay on HCT116 cells; 3.25 nM on BRAF^V600E.
With `CC(C)(C)c1nc(-c2cccc(NS(=O)(=O)c3c(F)cccc3F)c2F)c(-c2ccnc(NCCCCCCCC(=O)NO)n2)s1` [14c, 8-{[4-(2-(Tert-Butyl)-4-(3-(2,6-Difluorophenylsulfonamido)-2-Fluorophenyl)Thiazol-5-yl)Pyrimidin-2-yl]Amino}-N-Hydroxyoctanamide], the IC50 on HDAC6 was found to be 128 nM; with HT-29 cells, 880 nM; at HDAC1, 312 nM; in the assay with HCT116 cells, 4470 nM; against BRAF^V600E, 2.27 nM.
As to `CC(C)(C)c1nc(-c2cccc(NS(=O)(=O)c3c(F)cccc3F)c2F)c(-c2ccnc(NCCCCCCCCC(=O)NO)n2)s1` [14d, 9-{[4-(2-(Tert-Butyl)-4-(3-(2,6-Difluorophenylsulfonamido)-2-Fluorophenyl)Thiazol-5-yl)Pyrimidin-2-yl]Amino}-N-Hydroxynonanamide], the IC50 on HDAC6 stood at 322 nM; in the assay on HT-29 cells, 480 nM; at HDAC1, 765 nM; in the assay on HCT116 cells, 3660 nM; against BRAF^V600E it was 3.82 nM.
As to `Cc1nc(-c2cccc(NS(=O)(=O)c3c(F)cccc3F)c2F)c(-c2ccnc(NCCCCCCC(=O)NO)n2)s1` [14e, 7-{[4-(4-(3-(2,6-Difluorophenylsulfonamido)-2-Fluorophenyl)-2-Methylthiazol-5-yl)Pyrimidin-2-yl]Amino}-N-Hydroxyheptanamide], the 50% inhibitory concentration (IC50) on HDAC6 worked out at 14.6 nM; in the assay with HT-29 cells it was 6390 nM; at HDAC1, 42.2 nM; with HCT116 cells, 7530 nM; on BRAF^V600E, 3.5 nM.
Taken in the same sequence, the figures for `CCc1nc(-c2cccc(NS(=O)(=O)c3c(F)cccc3F)c2F)c(-c2ccnc(NCCCCCCC(=O)NO)n2)s1` [14f, 7-{[4-(4-(3-(2,6-Difluorophenylsulfonamido)-2-Fluorophenyl)-2-Ethylthiazol-5-yl)Pyrimidin-2-yl]Amino}-N-Hydroxyheptanamide] were 26.5 nM, 1270 nM, 61.3 nM, 4270 nM and 1.66 nM.
With `CC(C)c1nc(-c2cccc(NS(=O)(=O)c3c(F)cccc3F)c2F)c(-c2ccnc(NCCCCCCC(=O)NO)n2)s1` [14g, 7-{[4-(4-(3-(2,6-Difluorophenylsulfonamido)-2-Fluorophenyl)-2-Isopropylthiazol-5-yl)Pyrimidin-2-yl]Amino}-N-Hydroxyheptanamide], the IC50 at HDAC6 was 30 nM; in the assay with HT-29 cells, 990 nM; at HDAC1 it was 130 nM; in the assay with HCT116 cells, 2680 nM; against BRAF^V600E it was 1.51 nM.
For the compound `O=C(CCCCCCNc1nccc(-c2sc(C3CC3)nc2-c2cccc(NS(=O)(=O)c3c(F)cccc3F)c2F)n1)NO` [14h, 7-{[4-(2-Cyclopropyl-4-(3-(2,6-Difluorophenylsulfonamido)-2-Fluorophenyl)Thiazol-5-yl)Pyrimidin-2-yl]Amino}-N-Hydroxyheptanamide], the IC50 turned out to be 27.1 nM at HDAC6; 2210 nM in the assay with HT-29 cells; 49.8 nM at HDAC1; 4710 nM with HCT116 cells; 1.31 nM against BRAF^V600E.
Taken in the same sequence, the figures for `CCCc1nc(-c2cccc(NS(=O)(=O)c3c(F)cccc3F)c2F)c(-c2ccnc(NCCCCCCC(=O)NO)n2)s1` [14i, 7-{[4-(4-(3-(2,6-Difluorophenylsulfonamido)-2-Fluorophenyl)-2-Propylthiazol-5-yl)Pyrimidin-2-yl]Amino}-N-Hydroxyheptanamide] were 64.6 nM, 970 nM, 105 nM, 3080 nM and 1.07 nM.
For `CC(C)(C)c1nc(-c2cccc(NS(C)(=O)=O)c2F)c(-c2ccnc(NCCCCCCC(=O)NO)n2)s1` [21a, 7-{[4-(2-(Tert-Butyl)-4-(2-Fluoro-3-(Methylsulfonamido)Phenyl)Thiazol-5-yl)Pyrimidin-2-yl]Amino}-N-Hydroxyheptanamide] the same measures were 22.2 nM, 5020 nM, 113 nM, 8520 nM and 1.03 nM.
Taken in the same sequence, the figures for `CCCS(=O)(=O)Nc1cccc(-c2nc(C(C)(C)C)sc2-c2ccnc(NCCCCCCC(=O)NO)n2)c1F` [21b, 7-{[4-(2-(Tert-Butyl)-4-(2-Fluoro-3-(Propylsulfonamido)Phenyl)Thiazol-5-yl)Pyrimidin-2-yl]Amino}-N-Hydroxyheptanamide] were 72.1 nM, 780 nM, 432 nM, 5440 nM and 1.71 nM.
Consider `Cc1nc(-c2cccc(NS(C)(=O)=O)c2F)c(-c2ccnc(NCCCCCCC(=O)NO)n2)s1` [21d, 7-{[4-(4-(2-Fluoro-3-(Methylsulfonamido)Phenyl)-2-Methylthiazol-5-yl)Pyrimidin-2-yl]Amino}-N-Hydroxyheptanamide], for which the IC50 at HDAC6 was 21.8 nM; in the assay on HT-29 cells it was above 10000 nM; on HDAC1, 71 nM; in the assay on HCT116 cells, above 10000 nM; against BRAF^V600E it was 258 nM.
Take `CCS(=O)(=O)Nc1cccc(-c2nc(C)sc2-c2ccnc(NCCCCCCC(=O)NO)n2)c1F` [21e, 7-{[4-(4-(3-(Ethylsulfonamido)-2-Fluorophenyl)-2-Methylthiazol-5-yl)Pyrimidin-2-yl]Amino}-N-Hydroxyheptanamide]: the IC50 was 18.8 nM on HDAC6; above 10000 nM in the assay with HT-29 cells; 52.2 nM on HDAC1; 9150 nM with HCT116 cells; 107 nM against BRAF^V600E.

Broadly, the IC50 is the concentration that inhibits the measured activity by half.
